# In patent publication US20240156901A1, “GAL3BP POLYPEPTIDE COMPOSITIONS AND METHODS FOR TREATMENT OF CANCER AND DETERMINING TREATMENT RESPONSIVENESS” (UNIVERSITY OF PITTSBURGH-OF THE COMMONWEALTH SYSTEM OF …, priority 2021, published 2024):
# B1: rGal3BP: recombinant Gal3BP protein; Galectin-3-binding protein, monomer PDB 6GFB used for docking (protein)
# chain: VNDGDMRLADGGATNQGRVEIFYRGQWGTVCDNLWDLTDASVVCRALGFENATQALGRAAFGQGSGPIMLDEVQCTGTEASLADCKSLGWLKSNCRHERDAGVVCTNETRSTHTLDLSRELSEALGQIFDSQRGCDLSISVNVQGEDALGFCGHTVILTANLEAQALWKEPGSNVTMSVDAECVPMVRDLLRYFYSRRIDITLSSVKCFHKLASAYGARQLQGYCASLFAILLPQDPSFQMPLDLYAYAVATGDALLEKLCLQFLAWNFEALTQAEAWPSVPTDLLQLLLPRSDLAVPSELALLKAVDTWSWGERASHEEVEGLVEKIRFPMMLPEELFELQFNLSLYWSHEALFQKKTLQALEFHTVPFQLLARYKGLNLTEDTYKPRIYTSPTWSAFVTDSSWSARKSQLVYQSRRGPLVKYSSDYFQAPSDYRYYPYQSFQTPQHPSFLFQDKRVSWSLVYLPTIQSCWNYGFSCSSDELPVLGLTKSGGSDRTIAYENKALMLCEGLFVADVTDFEGWKAAIPSALDTNSSKSTSSFPCPAGHFNGFRTVIRPFYLTNSSGVD
# Experiments:
# GL261-CHI3L1 glioma = assay: Flow cytometry of immune cell populations in GL261-CHI3L1 glioma after peptide treatment; type: in vivo, mouse
# Protocol: Mice with neurological deficits or moribund appearance were sacrificed. Tumors were separated and homogenized for 15 min at 37° C. in Collagenase IV Cocktail (3.2 mg/mL collagenase type IV, 2 mg/mL soybean trypsin inhibitor, and 1.0 mg/mL deoxyribonuclease I; Worthington Biochemical). Red blood cells were lysed using ACK lysing buffer (Gibco). Cell suspensions were filtered through 70-μm strainers, centrifuged, and resuspended in cold FACS buffer (DPBS with 1% BSA) for further analysis.
# About 3×10^6 cells were used for each staining panel. Cells were incubated with 1.0 μg of TruStain fcX (BioLegend) for 10 min on ice to block Fc receptors, followed by staining with the combination of indicated antibodies. After staining, cells were washed with FACS buffer three times and incubated with Fixation Buffer (BioLegend) at RT for 20 min. Cells were washed with FACS buffer, resuspended in Cyto-Last Buffer (BioLegend), and analyzed by either a BD LSRFortessa or BD FACSAria II SORP. For CyTOF, samples were prepared as described above for flow cytometry. Three pairs of samples (scrambled shRNA vs Chi3l1 KD) with similar tumor sizes were chosen and the staining procedure was followed as previously described (Mitsialis V, et al., 2020). The samples were analyzed on a Helios2 CyTOF system (Fluidigm) at the Longwood Medical Area CyTOF Core. Additional information about flow cytometry antibodies is provided in the Supplementary Material and Methods section.
# [1] = system: GL261-CHI3L1 orthotopic tumors; assay: Peptide treatment of GL261-CHI3L1 orthotopic tumors (MRI, survival)
# Protocol: (§2) Male and female ICR SCID and C57BL/6 mice (4-6 weeks of age) were purchased from Taconic Biosciences and The Jackson Laboratory, respectively. The intracranial xenograft tumor models were established as previously described (Hu B et al., 2016). Cells in 5 μL DPBS were injected at the following numbers: TS543 vector control or CHI3L1 overexpression (OE), 1×10^4 cells; QPP7 scrambled control or CHI3L1 knockdown (KD), 1×10^5 cells; and GL261 vector control or CHI3L1 OE, 1×10^5 cells. […] For mice treated with peptides, 5 uL of 20 uM SCP or GMP was delivered into the mouse brain every 4 days with a total of seven times.
# (§3) MRI and bioluminescent imaging of mice were performed at Rangos Research Center Animal Imaging Core. The tumor size of mice detected by MRI was analyzed with ITK-SNAP.
# For intracranial xenograft tumor models treated with peptides, mice were implanted with a guide screw prior to intracranial injection. To install the screw, mice were anesthetized by intraperitoneal (IP) injection with ketamine/xylazine solution (1.75 mL of 100 mg/mL ketamine and 0.25 mL of 100 mg/mL xylazine in 8 mL sterile water) at a dosage of 100 μL/20 g body weight. The screw was covered by sealing the skin, and mice were allowed to recover for one week before intracranial implantation. GL261 cells overexpressing CHI3L1 (1×10^5) were injected in 5 μL of DPBS containing 20 μM of either scrambled control peptide (SCP) or Gal3BP mimetic peptide (GMP). SCP (20 μM) or GMP (20 μM) was subsequently given once every 3 days with a total of seven times by intracranial injection via the guide screw.
# (§4) All mice received general inhalation anesthesia with Isoflurane for in vivo brain imaging. […] Depth of anesthesia was monitored by toe reflex (extension of limbs, spine positioning) and respiration rate. […] Respiration was monitored using a pneumatic sensor placed between the animal bed and the mouse's abdomen, rectal temperature was measured with a fiberoptic sensor, and core temperature was maintained at 36.8±0.2° C. with a feedback-controlled warm air source (SA Instruments). […]
# Gal3/CHI3L1 = assay: Inhibition of Gal3/CHI3L1 by Gal3BP polypeptides; conditions: SEQ ID NO: 4 as compared to SEQ ID NO: 5
# [2] = system: bone-marrow derived macrophages (BMDMs); assay: Scratch-wound healing assay, BMDM migration; type: cell-based, mouse
# Protocol: (§1) BMDMs were isolated from male and female C57BL/6 mice as previously described (Ying W et al., 2013). Briefly, femur bones were isolated from mice, and IMDM (ATCC) supplemented with 10% FBS and P/S was used to flush the bone marrow into a petri dish. After 4-6-hour incubation, the floating cells were collected and resuspended in the medium with 20 ng/mL M-CSF (PrproTech). On day 6, the fully differentiated cells were designated as an M0 state. To induce BMDM polarization toward an M1 state, 100 ng/mL LPS (Invitrogen) and 50 ng/mL IFNγ (PrproTech) were added to the M0 cells for 24 hours. To induce BMDM polarization toward an M2 state, 20 ng/mL IL-4 (PrproTech) was added to the M0 cells for 72 hours.
# BMDM were polarized to the indicated status (M0, M1, or M2) and seeded in 12-well plates at 80-90% confluency. The cells were switched to the medium without FBS for 6 hours of starvation. Scratches were made using pipettor tips and fresh IMDM with indicated recombinant proteins and/or peptides were added. Images of the scratches were captured at indicated times. For the SIM-A9 scratch-wound healing assay, 12-well plates were coated with 10 μg/mL fibronectin (Sigma-Aldrich) at 37° C. overnight before seeding cells.
# QPP7 glioma = assay: Peptide treatment of orthotopic syngeneic QPP7 glioma (MRI, survival); conditions: orthotopic syngeneic mice bearing QPP7 glioma; local delivery into the brain; vs SCP
# Protocol: as §2, §3
# For intracranial xenograft tumor models treated with peptides, mice were implanted with a guide screw prior to intracranial injection. […]
# as §4
# [3] = target: T1, binding of CHI3L1 and Gal3 (Homo sapiens, UniProt P36222); assay: Co-IP with Gal3 antibody in THP-1 cells treated with peptides; conditions: 20 μM for 24 hours
# T1 construct: endogenous in cells; host or cells: THP-1 cells
# T1 sequence (P36222 22-383): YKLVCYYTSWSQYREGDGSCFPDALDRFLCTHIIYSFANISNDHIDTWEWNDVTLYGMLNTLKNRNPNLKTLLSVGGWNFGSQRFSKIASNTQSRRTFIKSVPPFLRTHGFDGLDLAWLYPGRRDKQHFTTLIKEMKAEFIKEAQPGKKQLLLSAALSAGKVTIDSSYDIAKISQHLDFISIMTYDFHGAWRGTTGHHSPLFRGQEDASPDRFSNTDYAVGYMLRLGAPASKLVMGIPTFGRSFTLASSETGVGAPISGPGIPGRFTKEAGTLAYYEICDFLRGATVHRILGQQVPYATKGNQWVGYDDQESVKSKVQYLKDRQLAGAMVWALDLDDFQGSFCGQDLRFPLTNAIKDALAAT
# Protocol: TS603 cells overexpressing CHI3L1 with V5 tag (TS603 CHI3L1_V5_OE) or THP-1 cells treated with the peptides were collected and protein-protein interaction was crosslinked with 2 mM Dithiobis (succinimidyl propionate, DSP). Membrane proteins were extracted with the Membrane Protein Extraction Kit (ThermoFisher, Cat #89842) and ˜500 μg of protein was used for Co-IP assay by the Co-Immunoprecipitation Kit (ThermoFisher, Cat #26149).
# (§5) For in vivo THP-1 cell or in vitro recombinant protein Co-IP experiments, additional following antibodies were used: Mouse anti-CHI3L1 (Santa Cruz Biotechnology, Cat #SC-393590), Rat anti-Galectin-3 (Santa Cruz Biotechnology, Cat #SC-23938), anti-Galectin-3BP (Santa Cruz Biotechnology, Cat #SC-374541), Rabbit anti-CHI3L1 (Cell Signaling Technology, Cat #47066), and Rat IgG (BioXCell, Cat #BE0090).
# [4] = system: bone-marrow derived macrophages (BMDMs); assay: Transwell migration assay, BMDM migration; type: cell-based, mouse; conditions: rCHI3L1 2.5 μg/mL, rGal3BP 5.0 μg/mL
# Protocol: as §1
# Polarized BMDMs were starved by removing FBS for 6 hours. Cells were collected and 2×10^5 cells in 200 μL of IMDM were added into each transwell insert (Millipore, Cat #MCMP24H48). 700 μL of IMDM containing 2% FBS and the indicated recombinant proteins was added to the bottom of the plates. After 14-hour incubation, transwell inserts were stained with HEMA 3 Stain Set (Fisher Scientific). Insert membranes were separated and mounted on glass slides with CYTOSEAL XYL (ThermoFisher) and images were taken by an inverted microscope (Leica DM 2500). For the SIM-A9 cells, the inserts were coated with 10 μg/mL fibronectin overnight in advance of seeding cells.
# PI3K/AKT/mTOR pathway = assay: Immunoblot of PI3K/AKT/mTOR signaling and transcription factors in M0 BMDMs; type: cell-based, mouse; conditions: 30 minutes
# Protocol: Cells were lysed on ice using RIPA buffer (Millipore) supplemented with protease and phosphatase inhibitors (Roche). The protein concentration was determined by the BCA method and 15˜30 ug of total proteins were loaded and analyzed by Western blotting with indicated antibodies. For IHC staining, brain tissues were fixed in 10% formalin overnight and embedded in paraffin. For IF staining, fresh brain tissues were immediately frozen in OCT on dry ice. IHC and IF staining were performed as we described previously (Hu B et al., 2016). Additional information about antibodies is provided in the Supplementary Material and Methods section
# Immunoblotting (IB), Immunohistochemistry (IHC), and Immunofluorescence (IF). […]
# [5] = system: Arg1, Ym1, Ccl2, Il10 gene expression; assay: qRT-PCR of immune suppression genes in M0 BMDMs; type: cell-based, mouse; conditions: rCHI3L1 2.5 μg/mL, rGal3 2.5 μg/mL, rGal3BP 5.0 μg/mL, 24 hours
# Protocol: as §1
# RNA was extracted and cDNA was synthesized as described previously (Hu B et al., 2016). qRT-PCR was performed using PowerSYBR Green PCR Master Mix (Applied Biosystems) and detected with a StepOnePlus Real-Time PCR System (Applied Biosystems). Each reaction was performed in duplicate or triplicate. The relative expression of genes was normalized to human RPL39 or mouse 18S ribosomal RNA. For RNA-seq experiments, cells from intracranial xenograft tumors were isolated and incubated with antibodies for immune cell types. Macrophages were isolated by FACS and RNA was then isolated and sent to Health Sciences Sequencing Core at UPMC Children's Hospital of Pittsburgh for RNA-seq. […]
# [6] = target: T2, Gal3 and CHI3L1 protein binding (Homo sapiens, UniProt P36222); assay: In vitro recombinant protein Co-IP competition (rGal3 + rCHI3L1 + increasing rGal3BP); conditions: 200 ng rGal3+200 ng rCHI3L1; rGal3BP 0-800 ng/sample; with or without TD139
# T2 construct: purchased R&D Systems 2599-CH-050 (CHI3L1); 8259-GA-050 (Galectin-3)
# T2 sequence (P36222 22-383): as above
# Source text: as §5
# [7] = GL261-CHI3L1 tumors, GMP in contrast to SCP
# [8] = GMP-treated vs SCP-treated tumors, GL261-CHI3L1 model
molecule,measurement,setting,value
TLDLSRELSEALGQI [GMP],CD8+ cells,GL261-CHI3L1 glioma; [7],significantly increased
same,T cells (CD3+),GL261-CHI3L1 glioma; [7],significantly increased
same,"PD-L1 expression in CD45+, CD8+ and CD4+ cells",GL261-CHI3L1 glioma; GMP treatment,only a decreasing trend
same,PD-L1 expression in glioma cells,GL261-CHI3L1 glioma; GMP treatment,significantly decreased
same,CTLA-4 level in CD4+ T cells,GL261-CHI3L1 glioma; GMP vs SCP,a trend of elevated levels
same,PD-1 level in CD4+ T cells,GL261-CHI3L1 glioma; GMP vs SCP,a trend of elevated levels
same,CTLA-4 expression in CD8+ T cells,GL261-CHI3L1 glioma; [8],significantly upregulated
same,PD-1 expression in CD8+ T cells,GL261-CHI3L1 glioma; [8],significantly upregulated
same,"PD-L1 expression in CD45+, CD8+ immune cells, and glioma cells","GL261-CHI3L1 glioma; preclinical mouse models, as restated in Example 8",significantly decrease
same,CD4+ cell population,GL261-CHI3L1 glioma; tumors of C57BL/6 mice bearing GL261-CHI3L1,41.9±4.5%
same,M2-like TAMs,"GL261-CHI3L1 glioma; tumors of C57BL/6 mice bearing GL261-CHI3L1, mean±SEM, P=0.0536",42.8±3.8%
same,M1-like TAMs,"GL261-CHI3L1 glioma; tumors of C57BL/6 mice bearing GL261-CHI3L1, mean±SEM, P=0.0719",49.5±4.0%
same,tumor growth (T2 MRI),"[1]; C57BL/6 mice bearing GL261-CHI3L1, GMP compared to SCP",reduced tumor growth
same,median survival,"[1]; C57BL/6 mice bearing GL261-CHI3L1 orthotopic tumors, 20 μM peptide into brain tumor via guide screw",36 days
same,inhibition of Gal3/CHI3L1,Gal3/CHI3L1,increased inhibition
same,"rCHI3L1-induced BMDM migration, dose dependence","[2]; M2 BMDMs, rCHI3L1 0.6 μg/mL, different concentrations of peptide, 6 hours",inhibits rCHI3L1-induced BMDM migration in a dose-dependent manner
same,rCHI3L1-promoted M2 BMDM migration,"[2]; rCHI3L1 0.6 μg/mL, peptide 30 μM, compared with SCP",significantly inhibited
same,rCHI3L1+rGal3-induced M0 BMDM migration,"[2]; rCHI3L1 2.5 μg/mL, rGal3 2.5 μg/mL, peptide 30 μM, in contrast to SCP",attenuated
same,mouse survival,QPP7 glioma,increased mouse survival
same,tumor size,QPP7 glioma,decreased tumor size
same,binding of CHI3L1 and Gal3 (Co-IP),[3],decreasing binding of CHI3L1 and Gal3
B1,rCHI3L1-induced M2 BMDM migration,[4],significantly attenuated
same,rCHI3L1-induced M2 BMDM migration,"[2]; rCHI3L1 2.5 μg/mL, rGal3BP 5.0 μg/mL, scratch-wound healing",significantly attenuated
same,"levels of p-AKT (T473 and S308), p-S6, and p-mTOR",PI3K/AKT/mTOR pathway,inhibited
same,"expression of genes related to anti-inflammation (Arg1, Ym1, Ccl2, Il10)",[5],significantly inhibited
same,competition with Gal3 for binding CHI3L1 (Co-IP),[6],compete for the same binding site in CHI3L1
